Three compounds from ChEMBL document CHEMBL1123955, “Improved delivery through biological membranes. 32. Synthesis and biological activity of brain-targeted delivery systems for various estradiol derivatives” (J Med Chem, 1988) can be followed below.

Where “and” joins values, the source holds several entries; their conditions need not be identical. Equal entries are not always repeated.

Data set [1] in a line: Partition coefficient (logP). Type of data set: physicochemical. Conditions: octanol/water.
A short description of data set [2]: Rate constant in liver homogenate. Type of data set: ADME, tissue-based. Conditions: tissue homogenate.
The nature of data set [3]: Half life in whole rat blood. Type of data set: ADME.
The species named for data set [4] is Rattus norvegicus. The data set can be described thus: Rate constant in whole rat blood. In kind it is ADME.
A short description of data set [5]: Half life in liver homogenate. Type of data set: ADME, tissue-based.
Data set [6] is described as follows: Half life in brain homogenate. In kind it is ADME, tissue-based.
Data set [7] can be described thus: Rate constant in brain homogenate. Type of data set: ADME, tissue-based.
The subject of data set [8] is Rattus norvegicus. Put plainly: Concentration in brain 0.25 hr after administration of compound 4d. In kind it is functional, organism-based.
The subject of data set [9] is Rattus norvegicus. The data set can be described thus: Concentration in brain 24 hr after administration of compound 4d. In kind it is functional, organism-based.
The test system of data set [10] is Rattus norvegicus. The data set can be described thus: Concentration in blood 1 hr after administration of compound 4d. In kind it is functional, organism-based.
In data set [11] the test system is Rattus norvegicus. Put plainly: Concentration in brain 3 hr after administration of compound 4d. Type of data set: functional, organism-based.
Data set [12] relates to Rattus norvegicus. The data set can be described thus: Concentration in blood 0.25 hr after administration of compound 4d. In kind it is functional, organism-based.
Data set [13] has as its system Rattus norvegicus. Put plainly: Concentration in brain hr after administration of compound 4d. Type of data set: functional, organism-based.
In data set [14] the test system is Rattus norvegicus. Put plainly: Concentration in brain 6 hr after administration of compound 4d. In kind it is functional, organism-based.

Take `C#C[C@]1(OC(=O)C2=CN(C)C=CC2)CC[C@H]2[C@@H]3CCc4cc(O)ccc4[C@H]3CC[C@@]21C`: the logP in data set [1] came to 4.53. In addition, the k in data set [2] stood at 0.0227 min⁻¹; in [4] it was 0.0139 min⁻¹; in data set [7], 0.0567 min⁻¹. The figures for the half-life in data set [3], in data set [5] and in data set [6] were 49.9 min, 24.5 min and 12.4 min, respectively.
`CN1C=CCC(C(=O)O[C@H]2CC[C@H]3[C@@H]4CCc5cc(O)ccc5[C@H]4CC[C@]23C)=C1`: in data set [1], the logP worked out at 4.5. Besides, the k in data set [2] amounted to 0.0283 min⁻¹; in data set [4], 0.0175 min⁻¹; in [7], 0.0537 min⁻¹. Moreover, the half-life in data set [3] came out at 39.6 min; in data set [5] it was 30.5 min; in [6], 12.9 min.
On to `C#C[C@]1(OC(=O)c2ccc[n+](C)c2)CC[C@H]2[C@@H]3CCc4cc(O)ccc4[C@H]3CC[C@@]21C`, for which the Concentration is 7.16 ng/g in data set [8]; 7.79 ng/g in data set [9]; 0.552 ng/g in data set [10]; 7.35 ng/g in data set [11]; 0.822 ng/g in data set [12]; 7.16 ng/g and 7.35 ng/g in [13]. Further, the Concentration in data set [14] came out at 7.07 ng/g.
